Square brackets hold non-standard residues; d marks the D form. Peptide text beside a SMILES is read from it. * marks the point of attachment. Sta = CC(C)C[C@H](N)[C@@H](O)CC(=O)O; Isovaleryl = CC(C)CC(=O)*
Target: T1, Amuc_1434* (Akkermansia muciniphila, UniProt B2UKY3)
T1 construct: recombinant, 6xHis-tag (N-terminal as printed; Pet25b-His vector), E. coli Rosetta (DE3), Ni-Sepharose; ~50 kDa on SDS-PAGE; b10 says amplified from genomic DNA, b49 says gene synthesized
T1 sequence (B2UKY3 22-326): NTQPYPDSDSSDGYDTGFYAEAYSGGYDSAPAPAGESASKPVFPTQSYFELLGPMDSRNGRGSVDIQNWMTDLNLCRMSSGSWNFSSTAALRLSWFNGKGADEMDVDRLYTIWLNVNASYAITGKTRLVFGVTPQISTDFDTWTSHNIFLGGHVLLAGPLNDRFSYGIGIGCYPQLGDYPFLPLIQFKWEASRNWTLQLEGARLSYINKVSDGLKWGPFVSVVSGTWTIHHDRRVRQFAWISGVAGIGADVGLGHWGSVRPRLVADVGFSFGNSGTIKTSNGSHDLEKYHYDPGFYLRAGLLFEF
Assay: hemoglobin hydrolysis, UV absorbance at […] nm
Assay type: biochemical
Settings: read-out: Relative Activity (%)

SMILES: CC(C)C[C@H](NC(=O)[C@@H]1O[C@H]1C(=O)O)C(=O)NCCCCN=C(N)N [E-64]
- activity at 10 µM: 88.5 ± 4.7%

SMILES: CC(C)CC(=O)N[C@H](C(=O)N[C@H](C(=O)N[C@@H](CC(C)C)[C@@H](O)CC(=O)N[C@@H](C)C(=O)N[C@@H](CC(C)C)[C@@H](O)CC(=O)O)C(C)C)C(C)C [pepstatin A] (Isovaleryl-VV[Sta]A[Sta]-OH)
- activity at 20 µM: 40.1 ± 6.7%

— PMC6982040, “A Purified Aspartic Protease from Akkermansia Muciniphila Plays an Important Role in Degrading Muc2” (International Journal of Molecular Sciences, 2019)
